Experiments:
in vitro = format: cell-based; conditions: Vero-E6 cells, MTT, 40 μM peptide, read-out: cell viability
Experimental: (§1) The cytotoxicity of test samples was assessed in Vero-E6 cells using the MTT assay, following the manufacturer’s protocol for the CellTiter 96 Non-radioactive Cell Proliferation Assay (Promega). Briefly, […] cells were seeded in 96-well plates at a density of 2 × 10^4 cells per well and incubated for 24 h. Following this, cells were treated with test samples at concentrations ranging from 0.2 to 40 μM and incubated for an additional 24 h. After incubation, 15 μL of MTT reagent (dye solution) was added to each well, and the cells were further incubated for 4 h. Subsequently, 100 μL of solubilization/stop solution was added to dissolve the formazan crystals. The optical density was measured at 570 nm, and statistical significance was determined by comparing the results to those of the mock-treated cells. […]
(§2) Figure S5. MTT assay of peptides including scrambled version
(§3) Vero-E6 cells were treated with NSP8-based peptides at concentrations ranging from 0.2 to 40 μM and incubated for an additional 24 hours. Cytotoxicity was evaluated using the MTT assay to assess the impact of the peptides on cell viability. According to IOS 10993-5 guidelines, cell […]
(§4) moderate cytotoxicity, and below 40% signifies strong cytotoxicity. […]

Vero-E6 cells = experiment: in vitro; format: cell-based; conditions: MTT, 24 h
Experimental: as §1, §2, §3, §4

[1] = tested on: wild-type ancestral SARS-CoV-2 L-clade strain; format: cell-based
Plasma stability = format: in vitro ADME; conditions: mouse plasma (ICR, male, K2-EDTA), LC-MS/MS; for Plasma Stability Half-life / time to complete loss of detectable peptide in plasma: 10 μM; for Plasma Stability Half-life / half-life at 10 μM: 37°C, 0, 20, 40, 60, 120 min, duplicate (n = 2); for time to complete loss of detectable peptide in plasma: 37°C, n = 2
Experimental: Plasma stability of the peptides was evaluated using mouse plasma (ICR, male, K2-EDTA) purchased from Innovative Research. Each peptide (10 μM final concentration) was incubated at 37°C for 0, 20, 40, 60, and 120 min. Samples were processed and analyzed by LC-MS/MS, as described above. Procaine was used as a positive control.
(§5) All in vitro stability experiments were performed in duplicate (n = 2). Since the standard deviation was less than 20% in all cases, no additional replicates were conducted.

[2] = Liver microsomal stability; format: in vitro ADME, mouse; conditions: for Metabolic Stability Evaluation: classified based on in vivo CL_int values (footnote of Table S3); for half-life at 10 μM / remaining at 1 h, 10 μM / microsomal CLint at 10 μM: mouse liver microsomes (CD-1, pooled), 37°C; for half-life at 10 μM: NADPH, 0, 5, 15, 30, 60 min, duplicate (n = 2); for half-life at 10 μM / remaining at 1 h, 10 μM: LC-MS/MS; for remaining at 1 h, 10 μM / microsomal CLint at 10 μM: NADPH; for remaining at 1 h, 10 μM: n = 2, read-out: Microsomal Stability Remaining at 60 min; for microsomal CLint at 10 μM: calculated from the depletion rate, read-out: CL_int, microsomal; for CL_int, in vivo: scaled from microsomal CL_int to in vivo liver clearance using established mouse parameters
Experimental: Reactions were quenched and peptide concentrations were quantified using liquid chromatography-tandem mass spectrometry (LC-MS/MS) (AB Sciex QTRAP 6500+, Analyst software version 1.7.2). Clearance and half-life were calculated by non-compartmental analysis, and values were converted to hepatic clearance (CLint, liver) using standard scaling factors.
as §5

NSP12-NSP8-NSP7 complex = target: T1, NSP12-NSP8-NSP7 complex (Severe acute respiratory syndrome coronavirus 2, UniProt P0DTD1); format: binding, SARS-CoV-2; conditions: for KD of the NSP8-NSP7-RNA ligand complex to NSP12 in the presence of the peptide: MST, labeled NSP12 20 nM, PBS with Tween 20, mean ± SD, more than three independent analyses, no-peptide Ctrl 11.9-12.9 nM
T1 construct: made in house; host or cells: NSP12: baculovirus in Hifive insect cells; NSP7 and NSP8: E. coli BL21(DE3), pET-11

[3] = concentrations between 20 and 40 μM

Row | Compound | viability at 24 h, 40 µM (in vitro) [%] | cytotoxicity (ISO 10993-5) (Vero-E6 cells; at 40 μM) | viral replication (infectious virus titers, TCID50), in words [1] | Plasma Stability Half-life (Plasma stability) | time to complete loss of detectable peptide in plasma (Plasma stability) [min] | half-life at 10 μM (Plasma stability) [min] | Metabolic Stability Evaluation [2] | half-life at 10 μM [2] [min] | remaining at 1 h, 10 μM [2] [%] | microsomal CLint at 10 μM [2] [µL/min/mg] | CL_int, in vivo [2] [mL/min/kg] | cytotoxicity (ISO 10993-5) (Vero-E6 cells; [3]) | KD of the NSP8-NSP7-RNA ligand complex to NSP12 in the presence of the peptide (NSP12-NSP8-NSP7 complex) [nM] | peptide aggregation in the MST assay (NSP12-NSP8-NSP7 complex; PBS with Tween 20 buffer, peptide 24 μM)
1 | CC[C@H](C)[C@H](NC(=O)[C@H](CC(N)=O)NC(=O)[C@H](CC(N)=O)NC(=O)[C@H](CC(C)C)NC(=O)[C@H](C)NC(=O)[C@H](CC(=O)O)NC(=O)[C@H](CC(N)=O)NC(C)=O)C(=O)N[C@H](C(=O)N[C@@H](CC(N)=O)C(=O)N[C@@H](CC(N)=O)C(=O)N[C@@H](C)C(=O)N[C@@H](CCCNC(=N)N)C(=O)N[C@@H](CC(=O)O)C(=O)NCC(=O)N[C@@H](CS)C(=O)N[C@H](C(=O)N1CCC[C@H]1C(=O)N[C@@H](CC(C)C)C(=O)N[C@@H](CC(N)=O)C(=O)N[C@H](C(=O)N[C@H](C(=O)N1CCC[C@H]1C(=O)N[C@@H](CC(C)C)C(=O)N[C@H](C(=O)N[C@H](C(=O)N[C@@H](C)C(=O)NCC(=O)N[C@@H](CCCNC(=N)N)C(=O)N[C@@H](CCCCN)C(=O)N[C@@H](CCCCN)C(=O)N[C@@H](CCCNC(=N)N)C(=O)N[C@@H](CCCNC(=N)N)C(=O)N[C@@H](CCC(N)=O)C(=O)N[C@@H](CCCNC(=N)N)C(=O)N[C@@H](CCCNC(=N)N)C(=O)N[C@@H](CCCNC(=N)N)C(=O)N1CCC[C@H]1C(=O)N[C@@H](CCC(N)=O)C(N)=O)[C@@H](C)O)[C@@H](C)O)[C@@H](C)CC)[C@@H](C)CC)C(C)C)[C@@H](C)CC [N8-Pepα] | > 80 | no cytotoxicity (cell viability above 80% indicates no cytotoxicity) | strongest antiviral effects | approximately 3 min | ≤ 20 | 3 | High metabolism | 9.2 | 0 | 151 | 594.7 |  |  | 
2 | CC[C@H](C)[C@@H]1NC(=O)[C@H](CC(N)=O)NC(=O)[C@H](CC(N)=O)NC(=O)[C@H](CC(C)C)NC(=O)[C@H](C)NC(=O)[C@H](CC(=O)O)NC(=O)[C@H](CC(N)=O)NC(=O)[C@@H](NC(C)=O)CSSC[C@@H](C(=O)NCC(=O)N[C@@H](CCCNC(=N)N)C(=O)N[C@@H](CCCCN)C(=O)N[C@@H](CCCCN)C(=O)N[C@@H](CCCNC(=N)N)C(=O)N[C@@H](CCCNC(=N)N)C(=O)N[C@@H](CCC(N)=O)C(=O)N[C@@H](CCCNC(=N)N)C(=O)N[C@@H](CCCNC(=N)N)C(=O)N[C@@H](CCCNC(=N)N)C(=O)N2CCC[C@H]2C(=O)N[C@@H](CCC(N)=O)C(N)=O)NC(=O)[C@H](C)NC(=O)[C@H]([C@@H](C)O)NC(=O)[C@H]([C@@H](C)O)NC(=O)[C@H](CC(C)C)NC(=O)[C@@H]2CCCN2C(=O)[C@H]([C@@H](C)CC)NC(=O)[C@H]([C@@H](C)CC)NC(=O)[C@H](CC(N)=O)NC(=O)[C@H](CC(C)C)NC(=O)[C@@H]2CCCN2C(=O)[C@H](C(C)C)NC(=O)[C@H](CS)NC(=O)CNC(=O)[C@H](CC(=O)O)NC(=O)[C@H](CCCNC(=N)N)NC(=O)[C@H](C)NC(=O)[C@H](CC(N)=O)NC(=O)[C@H](CC(N)=O)NC(=O)[C@H]([C@@H](C)CC)NC1=O [N8-Pepα_cyc] | > 80 | no cytotoxicity (cell viability above 80% indicates no cytotoxicity) | strongest antiviral effects | approximately 3 min | ≤ 20 | 3 | High metabolism | 23.3 | 14.9 | 59.6 | 234.7 |  |  | 
3 | CC[C@H](C)[C@H](NC(=O)[C@H](CC(N)=O)NC(=O)[C@H](CC(C)C)NC(=O)[C@@H]1CCCN1C(=O)[C@@H](NC(=O)[C@H](CS)NC(=O)CNC(=O)[C@H](CC(=O)O)NC(=O)[C@H](CCCNC(=N)N)NC(=O)[C@H](C)NC(=O)CNC(=O)[C@H](CO)NC(=O)CNC(=O)[C@H](CCCNC(=N)N)NC(=O)[C@H](CCCNC(=N)N)NC(=O)[C@H](CCCNC(=N)N)NC(=O)[C@H](CCC(N)=O)NC(=O)[C@H](CCCNC(=N)N)NC(=O)[C@H](CCCNC(=N)N)NC(=O)[C@H](CCCCN)NC(=O)[C@H](CCCCN)NC(=O)[C@H](CCCNC(=N)N)NC(=O)CNC(=O)[C@H](Cc1ccc(O)cc1)NC(C)=O)C(C)C)C(=O)N[C@H](C(=O)N1CCC[C@H]1C(=O)N[C@@H](CC(C)C)C(=O)N[C@H](C(=O)N[C@H](C(=O)N[C@@H](C)C(=O)N[C@@H](C)C(=O)N[C@@H](CCCCN)C(=O)N[C@@H](CC(C)C)C(=O)N[C@@H](CCSC)C(=O)N[C@H](C(=O)N[C@H](C(=O)N[C@H](C(=O)N1CCC[C@H]1C(=O)N[C@@H](CC(=O)O)C(N)=O)[C@@H](C)CC)C(C)C)C(C)C)[C@@H](C)O)[C@@H](C)O)[C@@H](C)CC [N8-PepβD] |  |  |  | approximately 3 min | ≤ 20 | 3 | High metabolism | 17.8 | 7.8 | 77.9 | 306.7 | weak cytotoxicity (80%-60% suggests weak cytotoxicity) |  | 
4 | CC[C@H](C)[C@H](NC(=O)[C@H](CC(N)=O)NC(=O)[C@H](CC(N)=O)NC(=O)[C@H](CC(C)C)NC(=O)CNC(=O)[C@H](CO)NC(=O)CNC(=O)[C@H](CCCNC(=N)N)NC(=O)[C@H](CCCNC(=N)N)NC(=O)[C@H](CCCNC(=N)N)NC(=O)[C@H](CCC(N)=O)NC(=O)[C@H](CCCNC(=N)N)NC(=O)[C@H](CCCNC(=N)N)NC(=O)[C@H](CCCCN)NC(=O)[C@H](CCCCN)NC(=O)[C@H](CCCNC(=N)N)NC(=O)CNC(=O)[C@H](Cc1ccc(O)cc1)NC(C)=O)C(=O)N[C@H](C(=O)N[C@@H](CC(N)=O)C(=O)N[C@@H](CC(N)=O)C(=O)N[C@@H](C)C(=O)N[C@@H](CCCNC(=N)N)C(=O)N[C@@H](CC(=O)O)C(=O)NCC(=O)N[C@@H](CS)C(=O)N[C@H](C(=O)N1CCC[C@H]1C(=O)N[C@@H](CC(C)C)C(=O)N[C@@H](CC(N)=O)C(=O)N[C@H](C(=O)N[C@H](C(=O)N1CCC[C@H]1C(=O)N[C@@H](CC(C)C)C(=O)N[C@H](C(=O)N[C@H](C(=O)N[C@@H](C)C(=O)N[C@@H](C)C(=O)N[C@@H](CCCCN)C(=O)N[C@@H](CC(C)C)C(=O)N[C@@H](CCSC)C(=O)N[C@H](C(=O)N[C@H](C(N)=O)C(C)C)C(C)C)[C@@H](C)O)[C@@H](C)O)[C@@H](C)CC)[C@@H](C)CC)C(C)C)[C@@H](C)CC [N8-Pepβ] |  |  |  | approximately 3 min | ≤ 20 | 3 | High metabolism | 9.8 | 15.1 | 142 | 559.2 | weak cytotoxicity (80%-60% suggests weak cytotoxicity) |  | 
5 | Ac-INRNLTVPNICTPGILINADANADLNGRKKRRQRRRPQ-NH2 [N8-Pepα_sc] |  |  |  |  |  |  |  |  |  |  |  |  | 14.3 ± 1.0 | 
6 | Ac-YGRKKRRQRRRGSGINVDAPMNNAGLKLTIRPCLTVIVNANIL-NH2 [N8-Pepβ_sc] |  |  |  |  |  |  |  |  |  |  |  |  | 14.2 ± 0.9 | 
7 | Ac-YGRKKRRQRRRGSGVVIPKIDLAAPNLMDLVPCRIATTG-NH2 [N8-PepβD_sc] |  |  |  |  |  |  |  |  |  |  |  |  |  | could not be determined due to peptide aggregation

— paper PMC12432892, “Therapeutic applications of interface-mimicking peptides for targeting the SARS-CoV-2 NSP12-NSP8 RdRp complex” (Molecular Therapy, 2025)
